Earlier results on five compounds are cited in patent US8859001B2, “Fenoldopam formulations and pro-drug derivatives” (priority 2007, dated 2014).

Counter-ions that a name gives are not always drawn. Like-named read-outs stand apart in the source and are kept apart here. Some results are limits rather than exact numbers.

The subject of data set [1] is human lymphoma and leukemia lines (Jurkat, HuT-78, K-562, Daudi, Raji). As to conditions: for effectiveness in killing lymphoma and leukemia: selective dopamine D1/5 receptor agonists tested.
The test system of data set [2] is mice. The settings on record: mouse, in vivo, po.
The conditions of data set [3]: IV infusion.
Data set [4] deals with patients. As to conditions: clinical use.
Data set [5] deals with TCR-activated human normal peripheral T-cells.
The test system of data set [6] is resting (i.e., not TCR-activated) human normal peripheral T-cells. The settings on record: in vitro.
For data set [7], the system named is α2-adrenoceptors.
Data set [8] relates to D2-like receptors.
Data set [9] concerns α1 adrenoceptors.
The subject of data set [10] is β adrenoceptors.
In data set [11] the test system is 5HT1 receptors.
In data set [12] the test system is 5HT2 receptors.
For data set [13], the system named is muscarinic receptors.

Regarding `Cl.NC[C@@H]1O[C@H](c2ccccc2)Cc2c1ccc(O)c2O` (racemic) [A 68930 hydrochloride, cis-(±)-1-(aminomethyl)-3,4-dihydro-3-phenyl-1H-2-benzopyran-5,6-diol hydrochloride], the “effectiveness in killing lymphoma and leukemia” value in [1] is “effective in killing lymphoma and leukemia”.

In the case of `CCOC(=O)C(C)O` (stereo not shown) [Ethyl lactate, 2-hydroxypropanoic acid ethyl ester], the LD50 entry in data set [2] is recorded as “higher than 5 g/kg”.

With `Oc1ccc(C2CNCCc3c2cc(O)c(O)c3Cl)cc1` (racemic) [Fenoldopam mesylate, 6-chloro-2,3,4,5-tetrahydro-1-(4-hydroxyphenyl)-1H-3-benzazepine-7,8-diol, methanesulfonate], the solubility (HCl/KCl buffer pH 1.5) is 9100 µg/mL, the solubility (buffer pH 6.8) is 130 µg/mL and the solubility (pH 7.5) was 60 µg/mL. In addition, the solubility in ethanol result (ethanol) was “sparingly soluble”. For the same compound, the solubility in methanol entry (methanol) is reported as “sparingly soluble”. Further, the “solubility in propylene glycol” value (propylene glycol) was “soluble”. Further, the solubility in water entry (water) is given as “sparingly soluble”. For the same compound, the “half life T1/2” value in data set [3] was about 5 min. Also, in [4], the “patients reporting the major side effects (headache, flushing and nausea)” value was at most 10%. Also, in data set [1], the “time to start of measurable cell death after exposure” value is 1 to 60 min. For the same compound, in data set [1] (1 mM-0.01 mM fenoldopam mesylate, five lymphoma/leukemia lines), the “death of cancer cells on in vitro exposure” value is listed as “death of all, or the vast majority of, these cancer cells”. In addition, the “death of cells (number of live and dead cells)” value in data set [1] (cancer cells, after 72 hr, concentrations within 0.1 mM-0.1 nM) is recorded as “over 98%”; in data set [5] (normal TCR-activated T-cells, after 72 hr, concentrations within 0.1 mM-0.1 nM), “over 98%”. In addition, the “killing of TCR-activated T-cells” value in [5] (in vitro) is reported as “kills potently a substantial proportion”. In addition, the “effect on resting T-cells” value in [6] is given as “hardly affecting”. For the same compound, the affinity result in data set [7] is “moderate affinity”; in [8], “no significant affinity”; in [9], “no significant affinity”; in data set [10], “no significant affinity”; in data set [11] it was “no significant affinity”; in data set [12] it was “no significant affinity”. For the same compound, the affinity result in data set [13] is “no significant affinity”.

`Br.Oc1cc2c(cc1O)C(c1ccccc1)CNCC2` (racemic) [SKF 38393 hydrobromide, (±)-1-phenyl-2,3,4,5-tetrahydro-(1H)-3-benzazepine-7,8-diol hydrobromide]: the “effectiveness in killing lymphoma and leukemia” value in data set [1] is “effective in killing lymphoma and leukemia”.

With `Cl.NC[C@@H]1O[C@H](C23CC4CC(CC(C4)C2)C3)Cc2c1ccc(O)c2O` [A 77636 hydrochloride, (1R-cis)-1-(aminomethyl)-3,4-dihydro-3-tricyclo[3.3.1.13,7]dec-1-yl-[1H]-2-benzopyran-5,6-diol hydrochloride], the “relative effectiveness as cancer cell killer” value in data set [1] (compared among dopamine receptor agonists) is “the most effective cancer killers”. The “effectiveness in killing lymphoma and leukemia” value in data set [1] was “effective in killing lymphoma and leukemia”. Further, the “relative effectiveness as killer of TCR-activated T-cells” value in [5] (compared among highly selective D1R agonists) was “the most effective killers of TCR-activated T-cells”.
